# Measurements as given in US20260001914A1, “MACROCYCLIC PEPTIDES TARGETING KRAS” (Merck Sharp & Dohme LLC, priority 2022, published 2026).
# *1 amine or outer side, *2 acyl side, *3 side chain or, on linkers, in order; H or OH if unused. Where a SMILES comes first, the peptide text is derived from it. Bridges are numbered along the chain shown (N, C = ends). [ ]: non-standard residue; d: D form. X48 = CCCC[C@@H](/C=C\[C@@H](Cc1cccnc1)C(=O)[*:2])N[*:1]; Phe(4-guanidino) = N=C(N)Nc1ccc(C[C@H](N)C(=O)O)cc1; X22 = CNC(=N)N(C)CCC[C@@H](C(=O)[*:2])N(C)[*:1]; Ala(pyrimidin-5-yl) = N[C@@H](Cc1cncnc1)C(=O)O; X6 = O=C([C@H](Cc1cnn(C2COC2)c1)N[*:1])[*:2]; NMeHis(τ-Me) = CN[C@@H](Cc1cn(C)cn1)C(=O)O; X37 = O=C([C@H](Cc1cnc(F)cc1F)N[*:1])[*:2]; X25 = O=C([C@H](Cc1ccc(F)nc1)N[*:1])[*:2]; X11 = CC(C)(F)CC[C@H](N[*:1])C(=O)[*:2]; Nle(5,5-F2) = CC(F)(F)CC[C@H](N)C(=O)O; Phe(2-CN) = N#Cc1ccccc1C[C@H](N)C(=O)O; Phe(2-F) = N[C@@H](Cc1ccccc1F)C(=O)O; Abu(4,4-F2) = N[C@@H](CC(F)F)C(=O)O; NMe3Pal = CN[C@@H](Cc1cccnc1)C(=O)O; X1 = O=C(C12CC(CN[*:1])(C1)C2)[*:2]; X17 = O=C([C@H](CCCCF)N[*:1])[*:2]; X38 = NC(=O)CCCN(CC(=O)[*:2])[*:1]; Ala(cPr) = N[C@@H](CC1CC1)C(=O)O; NMeF = CN[C@@H](Cc1ccccc1)C(=O)O; PhLac = O=C(O)[C@@H](O)Cc1ccccc1; 3Pal = N[C@@H](Cc1cccnc1)C(=O)O; Ahp(2) = CCCCC[C@H](N)C(=O)O; Cba = N[C@@H](CC1CCC1)C(=O)O; hLeu = CC(C)CC[C@H](N)C(=O)O; αMeC = C[C@](N)(CS)C(=O)O; NMeA = CN[C@@H](C)C(=O)O; Nle = CCCC[C@H](N)C(=O)O; Pra = C#CC[C@H](N)C(=O)O
# Target: phosphorylation levels of ERK1/2 in AsPC-1 (homozygous KRAS-G12D) cells (Homo sapiens, UniProt P01116, G12D)
# Assay: Cellular phospho-ERK assay in AsPC-1 cells (Alpha Screen), assay medium without fetal bovine serum;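 note: signal taken as phospho-ERK over total ERK per well, both detected in one multiplex bead assay, EC50 from four-parameter logistic fit of dose-response curves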
# Assay type: cell-based
# Conditions: phospho-ERK AlphaScreen, 18 h
# Sequence of phosphorylation levels of ERK1/2 in AsPC-1 (homozygous KRAS-G12D) cells (P01116 1-186 G12D): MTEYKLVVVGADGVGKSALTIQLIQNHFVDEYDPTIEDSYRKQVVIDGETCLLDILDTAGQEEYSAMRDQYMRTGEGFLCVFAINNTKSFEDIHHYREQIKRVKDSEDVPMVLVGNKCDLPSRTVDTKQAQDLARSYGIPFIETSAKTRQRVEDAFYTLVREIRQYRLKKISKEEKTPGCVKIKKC
row,SMILES,EC50 [µM]
1,"CCCCC[C@@H]1NC(=O)[C@H](Cc2ccc(OC)cc2)NC(=O)[C@H](CC2CCC2)NC(=O)[C@H](Cc2cccnc2)NC(=O)[C@H](CCCNC(=N)N)NC(=O)[C@H](Cc2ccccc2)NC(=O)CSC[C@@](C)(C(N)=O)NC(=O)[C@H](Cc2cn(C)cn2)N(C)C1=O [compound 378, cyclo(F-R-3Pal-cBuA-TyrOMe-Ahp-NMeHis1Me-aMeCl-ClAc)] ({CH2CO}-FR[3Pal][Cba]Y(Me)[Ahp(2)][NMeHis(τ-Me)][αMeC]-NH2; thioether N-8)",> 50.8
2,"C[C@H]1C(=O)N[C@@H](Cc2cccnc2)C(=O)N[C@@H](CC2CC2)C(=O)N[C@@H](Cc2ccccc2F)C(=O)N[C@@H](CCC(C)(F)F)C(=O)N(C)[C@@H](Cc2ccccc2)C(=O)NCC23CC(C2)(C3)C(=O)O[C@@H](Cc2ccccc2)C(=O)N1C [compound 289, cyclo(FLac-NMeA-3Pal-cPrA-Phe2F-Nle3F2-NMeF-amBCP)] (cyclo([3Pal][Ala(cPr)][Phe(2-F)][Nle(5,5-F2)][NMeF][X1][PhLac][NMeA]))",1.07
3,"CCCCC[C@@H]1NC(=O)[C@H](Cc2ccccc2C#N)NC(=O)[C@H](CC2CCC2)NC(=O)[C@H](Cc2cccnc2)NC(=O)[C@H](CCCNC(=N)N)NC(=O)[C@H](Cc2ccccc2)NC(=O)CSC[C@@](C)(C(N)=O)NC(=O)[C@H](Cc2ccccc2)N(C)C1=O [compound 375, cyclo(F-R-3Pal-cBuA-Phe2CN-Ahp-NMeF-aMeCl-ClAc)] ({CH2CO}-FR[3Pal][Cba][Phe(2-CN)][Ahp(2)][NMeF][αMeC]-NH2; thioether N-8)",> 50.8
4,"CCCC[C@@H]1NC(=O)[C@H](Cc2cccnc2)NC(=O)[C@H](CCCN(C)C(=N)NC)N(C)C(=O)[C@H](Cc2ccccc2)OC(=O)CSC[C@@](C)(C(N)=O)NC(=O)[C@H](Cc2cccnc2)N(C)C(=O)[C@H](CCCC)NC(=O)[C@H](Cc2ccccc2F)NC1=O [compound 396, cyclo(FLac-NMeArg1MeMe-3Pal-Nle-Phe2F-Nle-NMe3Pal-aMeCl-ClAc)] ({CH2CO}-[PhLac][X22][3Pal][Nle][Phe(2-F)][Nle][NMe3Pal][αMeC]-NH2; thioether N-8)",> 50.8
5,"CCCC[C@@H]1NC(=O)[C@H](Cc2cncnc2)NC(=O)[C@H](C)N(C)C(=O)[C@H](Cc2ccccc2)OC(=O)C23CC(CNC(=O)[C@H](Cc4ccccc4)N(C)C(=O)[C@H](CCCCF)NC(=O)[C@H](Cc4ccccc4F)NC1=O)(C2)C3 [compound 131, cyclo(FLac-NMeA-PyrimAla-Nle-Phe2F-NleF-NMeF-amBCP)] (cyclo([NMeA][Ala(pyrimidin-5-yl)][Nle][Phe(2-F)][X17][NMeF][X1][PhLac]))",2.33
6,"CCCCC[C@@H]1NC(=O)[C@H](Cc2ccc(OC)cc2)NC(=O)[C@H](CC2CCC2)NC(=O)[C@H](Cc2ccc(NC(=N)N)cc2)NC(=O)CN(CCCC(N)=O)C(=O)[C@H](Cc2ccccc2)NC(=O)CSC[C@@](C)(C(N)=O)NC(=O)[C@H](Cc2ccccc2)N(C)C1=O [compound 386, cyclo(F-Cmpg-Phe4Gn-cBuA-TyrOMe-Abp-NMeF-aMeCl-ClAc)] ({CH2CO}-F[X38][Phe(4-guanidino)][Cba]Y(Me)[Ahp(2)][NMeF][αMeC]-NH2; thioether N-8)",> 50.8
7,"CCCC[C@@H]1NC(=O)[C@H](Cc2cccnc2)NC(=O)[C@H](C)N(C)C(=O)[C@H](Cc2ccc(O)cc2)NC(=O)C23CC(CNC(=O)[C@H](Cc4cccnc4)N(C)C(=O)[C@H](CCCC)NC(=O)[C@H](Cc4ccccc4F)NC1=O)(C2)C3 [compound 168, cyclo(Y-NMeA-3Pal-Nle-Phe2F-Nle-NMe3Pal-amBCP)] (cyclo(Y[NMeA][3Pal][Nle][Phe(2-F)][Nle][NMe3Pal][X1]))",46.4
8,"CCCC[C@@H]1NC(=O)[C@H](Cc2cncnc2)NC(=O)[C@H](C)N(C)C(=O)[C@H](Cc2ccccc2)OC(=O)C23CC(CNC(=O)[C@H](Cc4ccccc4)N(C)C(=O)[C@H](CCCC)NC(=O)[C@H](Cc4ccccc4F)NC1=O)(C2)C3 [compound 230, cyclo(FLac-NMeA-PyrimAla-Nle-Phe2F-Nle-NMeF-amBCP)] (cyclo([NMeA][Ala(pyrimidin-5-yl)][Nle][Phe(2-F)][Nle][NMeF][X1][PhLac]))",0.59
9,"CC(C)CC[C@@H]1NC(=O)[C@H](Cc2cnn(C3COC3)c2)NC(=O)[C@H](CC2CC2)NC(=O)[C@H](Cc2cncnc2)NC(=O)[C@H](C)N(C)C(=O)[C@H](Cc2ccccc2)OC(=O)C23CC(CNC(=O)[C@H](Cc4ccccc4)N(C)C1=O)(C2)C3 [compound 300, cyclo(FLac-NMeA-PyrimAla-cPrA-AlaPyz1Ox-hL-NMeF-amBCP)] (cyclo([Ala(cPr)][X6][hLeu][NMeF][X1][PhLac][NMeA][Ala(pyrimidin-5-yl)]))",> 50.8
10,"CCCC[C@H]1/C=C\[C@@H](Cc2cccnc2)C(=O)NCC23CC(C2)(C3)C(=O)O[C@@H](Cc2ccccc2)C(=O)N(C)[C@@H](C)C(=O)N[C@@H](Cc2cncnc2)C(=O)N[C@@H](CCCC)C(=O)N[C@@H](Cc2ccccc2F)C(=O)N1 [SEQ ID NO: 137, cyclo(FLac-NMeA- PyrimAla-Nle-Phe2F- Nlecalken3Pal-amBCP)] (cyclo([NMeA][Ala(pyrimidin-5-yl)][Nle][Phe(2-F)][X48][X1][PhLac]))",11.2
11,"C[C@H]1C(=O)N[C@@H](Cc2cncnc2)C(=O)N[C@@H](CC2CC2)C(=O)N[C@@H](Cc2ccccc2F)C(=O)N[C@@H](CC(F)F)C(=O)N(C)[C@@H](Cc2ccccc2)C(=O)NCC23CC(C2)(C3)C(=O)O[C@@H](Cc2ccccc2)C(=O)N1C [compound 271, cyclo(FLac-NMeA-PyrimAla-cPrA-Phe2F-AbuF2-NMeF-amBCP)] (cyclo([Ala(cPr)][Phe(2-F)][Abu(4,4-F2)][NMeF][X1][PhLac][NMeA][Ala(pyrimidin-5-yl)]))",36.6
12,"C[C@H]1C(=O)N[C@@H](Cc2cncnc2)C(=O)N[C@@H](CCC(C)(F)F)C(=O)N[C@@H](Cc2ccccc2F)C(=O)N[C@@H](CCC(C)(F)F)C(=O)N(C)[C@@H](Cc2ccccc2)C(=O)NCC23CC(C2)(C3)C(=O)O[C@@H](Cc2ccccc2)C(=O)N1C [compound 288, cyclo(FLac-NMeA-PyrimAla-Nle3F2-Phe2F-Nle3F2-NMeF-amBCP)] (cyclo([NMeA][Ala(pyrimidin-5-yl)][Nle(5,5-F2)][Phe(2-F)][Nle(5,5-F2)][NMeF][X1][PhLac]))",6.61
13,"C[C@H]1C(=O)N[C@@H](Cc2cncnc2)C(=O)N[C@@H](CCCCF)C(=O)N[C@@H](Cc2ccccc2F)C(=O)N[C@@H](CCCCF)C(=O)N(C)[C@@H](Cc2ccccc2)C(=O)NCC23CC(C2)(C3)C(=O)O[C@@H](Cc2ccccc2)C(=O)N1C [compound 128, cyclo(FLac-NMeA-PyrimAla-NleF-Phe2F-NleF-NMeF-amBCP)] (cyclo([NMeA][Ala(pyrimidin-5-yl)][X17][Phe(2-F)][X17][NMeF][X1][PhLac]))",3.72
14,"CCCC[C@@H]1NC(=O)[C@H](Cc2ccc(F)nc2)NC(=O)[C@H](C)N(C)C(=O)[C@H](Cc2ccccc2)OC(=O)C23CC(CNC(=O)[C@H](Cc4ccccc4)N(C)C(=O)[C@H](CCCC)NC(=O)[C@H](Cc4ccccc4F)NC1=O)(C2)C3 [compound 231, cyclo(FLac-NMeA-4F3Pal-Nle-Phe2F-Nle-NMeF-amBCP)] (cyclo([NMeA][X25][Nle][Phe(2-F)][Nle][NMeF][X1][PhLac]))",0.589
15,"C#CC[C@@H]1NC(=O)[C@H](CC2CC2)NC(=O)[C@H](Cc2cncnc2)NC(=O)[C@H](C)N(C)C(=O)[C@H](Cc2ccccc2)OC(=O)C23CC(CNC(=O)[C@H](Cc4ccccc4)N(C)C(=O)[C@H](CCC(C)C)NC1=O)(C2)C3 [compound 286, cyclo(FLac-NMeA-PyrimAla-cPrA-Pra-hL-NMeF-amBCP)] (cyclo([Ala(cPr)][Pra][hLeu][NMeF][X1][PhLac][NMeA][Ala(pyrimidin-5-yl)]))",30.3
16,"CCCC[C@@H]1NC(=O)[C@H](Cc2cccnc2)NC(=O)[C@H](C)N(C)C(=O)[C@H](Cc2ccccc2)NC(=O)C23CC(CNC(=O)[C@H](Cc4cccnc4)N(C)C(=O)[C@H](CCCC)NC(=O)[C@H](Cc4ccccc4F)NC1=O)(C2)C3 [compound 162, cyclo(F-NMeA-3Pal-Nle-Phe2F-Nle-NMe3Pal-amBCP)] (cyclo(F[NMeA][3Pal][Nle][Phe(2-F)][Nle][NMe3Pal][X1]))",> 50.8
17,"C[C@H]1C(=O)N[C@@H](Cc2cncnc2)C(=O)N[C@@H](CC2CC2)C(=O)N[C@@H](Cc2ccccc2F)C(=O)N[C@@H](CCC(C)(C)F)C(=O)N(C)[C@@H](Cc2ccccc2)C(=O)NCC23CC(C2)(C3)C(=O)O[C@@H](Cc2ccccc2)C(=O)N1C [compound 277, cyclo(FLac-NMeA-PyrimAla-cPrA-Phe2F-hL3F-NMeF-amBCP)] (cyclo([Ala(cPr)][Phe(2-F)][X11][NMeF][X1][PhLac][NMeA][Ala(pyrimidin-5-yl)]))",0.793
18,"CC(C)CC[C@@H]1NC(=O)[C@H](Cc2cnc(F)cc2F)NC(=O)[C@H](CC2CC2)NC(=O)[C@H](Cc2cncnc2)NC(=O)[C@H](C)N(C)C(=O)[C@H](Cc2ccccc2)OC(=O)C23CC(CNC(=O)[C@H](Cc4ccccc4)N(C)C1=O)(C2)C3 [compound 294, cyclo(FLac-NMeA-PyrimAla-cPrA-3Pal46F2-hL-NMeF-amBCP)] (cyclo([Ala(cPr)][X37][hLeu][NMeF][X1][PhLac][NMeA][Ala(pyrimidin-5-yl)]))",4.66
19,"CCCCC[C@@H]1NC(=O)[C@H](Cc2ccc(OC)cc2)NC(=O)[C@H](CC2CCC2)NC(=O)[C@H](Cc2cccnc2)NC(=O)[C@H](C)N(C)C(=O)[C@H](Cc2ccccc2)OC(=O)C23CC(CNC(=O)[C@H](Cc4ccccc4)N(C)C1=O)(C2)C3 [compound 227, cyclo(FLac-NMeA-3Pal-cBuA-TyrOMe-Ahp-NMeF-amBCP)] (cyclo([3Pal][Cba]Y(Me)[Ahp(2)][NMeF][X1][PhLac][NMeA]))",0.886
20,"CCCCC[C@@H]1NC(=O)[C@H](Cc2ccc(OC)cc2)NC(=O)[C@H](CC2CCC2)NC(=O)[C@H](Cc2ccn(C)n2)NC(=O)[C@H](CCCNC(=N)N)NC(=O)[C@H](Cc2ccccc2)NC(=O)CSC[C@@](C)(C(N)=O)NC(=O)[C@H](Cc2ccccc2)N(C)C1=O [compound 362, cyclo(F-R-MePyzAla-cBuA-TyrOMe-Ahp-NMeF-aMeCl-ClAc)]",> 50.8
